“And” between values parts separate entries of the source, which are not always exact repeats. Identical values can stand only once.
Tested on: OVCAR-5 complex spheroids with HUVEC/MSC, viability, % test/control
Experiment: Anticancer human tumor OVCAR-5 cell line growth inhibition [AhR];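 also: spheroids exposed to compounds for 7 days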;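 as to viability, T/C: 100% = DMSO vehicle control wells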
Conditions: for viability, T/C: stronger effect = lower value; active = viability on the fitted dose curve at most 10% of control; inactive = the rest
How it was run: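 Agents were dosed in half-log steps down from roughly clinical Cmax, or from 10 microM where Cmax was unknown, alone and with AhR antagonists. Read-out: percent test/control growth of tumor spheroids containing HUVEC and MSC stromal cells.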

[1] = curve of first compound, second compound 0.1 µM
[2] = curve of first compound, second compound 0.316 µM
[3] = curve of first compound, second compound 1 µM
[4] = curve of first compound, second compound 3.16 µM
[5] = curve of first compound, second compound 10 µM
[6] = second compound 0.1 µM, first compound 0.00949 µM
[7] = second compound 0.1 µM, first compound 0.03 µM
[8] = second compound 0.1 µM, first compound 0.0949 µM
[9] = second compound 0.1 µM, first compound 0.3 µM
[10] = second compound 0.316 µM, first compound 0.00949 µM
[11] = second compound 0.316 µM, first compound 0.03 µM
[12] = second compound 0.316 µM, first compound 0.0949 µM
[13] = second compound 0.316 µM, first compound 0.3 µM
[14] = second compound 1 µM, first compound 0.00949 µM
[15] = second compound 1 µM, first compound 0.03 µM
[16] = second compound 1 µM, first compound 0.0949 µM
[17] = second compound 1 µM, first compound 0.3 µM
[18] = second compound 3.16 µM, first compound 0.00949 µM
[19] = second compound 3.16 µM, first compound 0.03 µM
[20] = second compound 3.16 µM, first compound 0.0949 µM
[21] = second compound 3.16 µM, first compound 0.3 µM
[22] = second compound 10 µM, first compound 0.00949 µM
[23] = second compound 10 µM, first compound 0.03 µM
[24] = second compound 10 µM, first compound 0.0949 µM
[25] = second compound 10 µM, first compound 0.3 µM

CCc1c2c(nc3ccc(O)cc13)-c1cc3c(c(=O)n1C2)COC(=O)[C@]3(O)CC + Cc1ccccc1N=Nc1ccc(NC(=O)c2ccnn2C)c(C)c1
active: viability, T/C [13] 6.8% | viability, T/C [17] 7.02% | viability, T/C [21] 7.44% | viability, T/C [25] 8.22%
0.00943 µM: IC50 [3]
0.0082 µM: IC50 [2]
0.00695 µM: IC50 [1]
0.0105 µM: IC50 [5]
0.00946 µM: IC50 [4]
inactive: viability, T/C (second compound 0.1 µM, first compound 0.000949 µM) 85.7% | viability, T/C (second compound 0.1 µM, first compound 0.003 µM) 64.3% | viability, T/C [6] 37.1% | viability, T/C [7] 36.9% | viability, T/C [8] 22.5% | viability, T/C [9] 7.67% | viability, T/C (second compound 0.316 µM, first compound 0.000949 µM) 87.4% | viability, T/C (second compound 0.316 µM, first compound 0.003 µM) 70.3% | viability, T/C [10] 39.2% | viability, T/C [11] 37% | viability, T/C [12] 18.7% | viability, T/C (second compound 1 µM, first compound 0.000949 µM) 91.3% | viability, T/C (second compound 1 µM, first compound 0.003 µM) 73.4% | viability, T/C [14] 40.8% | viability, T/C [15] 38.3% | viability, T/C [16] 20.9% | viability, T/C (second compound 3.16 µM, first compound 0.000949 µM) 95.9% | viability, T/C (second compound 3.16 µM, first compound 0.003 µM) 70.7% | viability, T/C [18] 45.4% | viability, T/C [19] 38.1% | viability, T/C [20] 18.4% | viability, T/C (second compound 10 µM, first compound 0.000949 µM) 89.5% | viability, T/C (second compound 10 µM, first compound 0.003 µM) 65.9% | viability, T/C [22] 45.9% | viability, T/C [23] 42.1% | viability, T/C [24] 21.5%

CCN(c1cc(-c2ccc(CN3CCOCC3)cc2)cc(C(=O)NCc2c(C)cc(C)[nH]c2=O)c1C)C1CCOCC1 + Cc1cncc(-c2nc(NCCc3c[nH]c4ccccc34)c3ncn(C(C)C)c3n2)c1
< 0.00949 µM: IC50 [5]
active: viability, T/C [25] 6.52% | viability, T/C (second compound 10 µM, first compound 0.949 µM) 2.63% | viability, T/C (second compound 10 µM, first compound 3 µM) 1.33%
inactive: viability, T/C [6] 101% | viability, T/C [7] 101% | viability, T/C [8] 98.9% | viability, T/C [9] 97.3% | viability, T/C (second compound 0.1 µM, first compound 0.949 µM) 97.1% | viability, T/C (second compound 0.1 µM, first compound 3 µM) 96.7% | viability, T/C [10] 102% | viability, T/C [11] 100% | viability, T/C [12] 96.5% | viability, T/C [13] 97.8% | viability, T/C (second compound 0.316 µM, first compound 0.949 µM) 94.7% | viability, T/C (second compound 0.316 µM, first compound 3 µM) 98.2% | viability, T/C [14] 93.4% | viability, T/C [15] 93.4% | viability, T/C [16] 97% | viability, T/C [17] 90.6% | viability, T/C (second compound 1 µM, first compound 0.949 µM) 89.7% | viability, T/C (second compound 1 µM, first compound 3 µM) 89.6% | viability, T/C [18] 78.5% | viability, T/C [19] 79% | viability, T/C [20] 80.2% | viability, T/C [21] 75.3% | viability, T/C (second compound 3.16 µM, first compound 0.949 µM) 72.7% | viability, T/C (second compound 3.16 µM, first compound 3 µM) 70.4% | viability, T/C [22] 14.8% | viability, T/C [23] 16% | viability, T/C [24] 15.4%
> 3 µM: IC50 [1] | IC50 [2] | IC50 [3] | IC50 [4]

CC1COCCN1c1cc(C2(S(C)(=N)=O)CC2)nc(-c2ccnc3[nH]ccc23)n1 (configuration not stated)
inactive: viability, T/C (compound 0.0316 µM) 101% and 102% and 99.5% | viability, T/C (compound 0.1 µM) 101% (2×) and 99.1% | viability, T/C (compound 0.316 µM) 104% and 102% and 96.8% | viability, T/C (compound 1 µM) 100% and 97.1% and 98% | viability, T/C (compound 3.16 µM) 89.4% and 71.8% and 75.2% | viability, T/C (compound 10 µM) 46.7% and 37% and 41%
9.16 µM and 6.5 µM and 7.4 µM: IC50 (curve of compound)

COc1cc(C2c3cc4c(cc3C(OC3OC5COC(C)OC5C(O)C3O)C3COC(=O)C23)OCO4)cc(OC)c1O (configuration not stated) + CC(CO)NC(=O)c1cc(-c2ccc(Cl)cc2)nn(-c2cnn(C)c2)c1=O
3.88 µM: IC50 [2]
3.92 µM: IC50 [4]
5.44 µM: IC50 [3]
inactive: viability, T/C (second compound 0.1 µM, first compound 0.0316 µM) 106% | viability, T/C (second compound 0.1 µM, first compound 0.1 µM) 106% | viability, T/C (second compound 0.1 µM, first compound 0.316 µM) 100% | viability, T/C (second compound 0.1 µM, first compound 1 µM) 82.8% | viability, T/C (second compound 0.1 µM, first compound 3.16 µM) 52.7% | viability, T/C (second compound 0.1 µM, first compound 10 µM) 38.1% | viability, T/C (second compound 0.316 µM, first compound 0.0316 µM) 105% | viability, T/C (second compound 0.316 µM, first compound 0.1 µM) 109% | viability, T/C (second compound 0.316 µM, first compound 0.316 µM) 101% | viability, T/C (second compound 0.316 µM, first compound 1 µM) 86% | viability, T/C (second compound 0.316 µM, first compound 3.16 µM) 52.7% | viability, T/C (second compound 0.316 µM, first compound 10 µM) 36.6% | viability, T/C (second compound 1 µM, first compound 0.0316 µM) 115% | viability, T/C (second compound 1 µM, first compound 0.1 µM) 112% | viability, T/C (second compound 1 µM, first compound 0.316 µM) 107% | viability, T/C (second compound 1 µM, first compound 1 µM) 84.9% | viability, T/C (second compound 1 µM, first compound 3.16 µM) 59.2% | viability, T/C (second compound 1 µM, first compound 10 µM) 40.3% | viability, T/C (second compound 3.16 µM, first compound 0.0316 µM) 98.9% | viability, T/C (second compound 3.16 µM, first compound 0.1 µM) 102% | viability, T/C (second compound 3.16 µM, first compound 0.316 µM) 98% | viability, T/C (second compound 3.16 µM, first compound 1 µM) 71.4% | viability, T/C (second compound 3.16 µM, first compound 3.16 µM) 56.2% | viability, T/C (second compound 3.16 µM, first compound 10 µM) 37.4% | viability, T/C (second compound 10 µM, first compound 0.0316 µM) 96.1% | viability, T/C (second compound 10 µM, first compound 0.1 µM) 97.1% | viability, T/C (second compound 10 µM, first compound 0.316 µM) 82.6% | viability, T/C (second compound 10 µM, first compound 1 µM) 63.5% | viability, T/C (second compound 10 µM, first compound 3.16 µM) 52.7% | viability, T/C (second compound 10 µM, first compound 10 µM) 40.1%
3.1 µM: IC50 [5]
3.96 µM: IC50 [1]
